Data on four molecules can be found in article PMC4134956 (Bioorganic & medicinal chemistry, 2014).

The structures appear in SMILES notation.

For data set [1] the following is noted: single injection at 10 mg/kg; non-radioactive version; cited from earlier work.
Data set [2] is classed as in vivo, NSG male mouse. Particulars: for preferential tumor localization compared to lung: single injection.
For data set [3] the following is noted: cited from earlier work.
[4] abbreviates: single i.p. injection 20 nmol per animal, 24 hours.
Setting [5] is: single i.p. injection 20 nmol, 7 days.

Take `CC(=O)N[C@H](CCNC(=O)c1cc(NC(=O)c2cc(NC(=O)c3cc(NC(=O)c4nccn4C)cn3C)cn2C)cn1C)C(=O)Nc1cn(C)c(C(=O)Nc2cc(C(=O)Nc3cc(C(=O)Nc4cc(C(=O)NCCCN(C)CCCN[14C](=O)c5cccc([14C](=O)O)c5)n(C)c4)n(C)c3)n(C)c2)n1` [compound 1, ImPyPyPy-(R)^α-NHAcγ-ImPyPyPy]: in data set [1], the liver toxicity entry was “not 1”. Moreover, the “mean tumor concentration, multiple injection experiment” value in data set [2] (3 injections days 1, 4, 7, 20 nmol i.p. each, harvest 24 h after last) was 3.49 mg/kg. The “accumulation upon repeated injection in tumor and organs assessed” value in data set [2] (3 injections over 7 days) is reported as “Some twofold accumulation”. For the same molecule, the “enrichment in the tumor over all host tissues probed” value in data set [2] (4 hour time point) is listed as “some two-fold enrichment”. Besides, the “liver concentration lower than that in tumors” value in data set [2] (24 hours, p < 0.01) worked out at 29%. Moreover, in data set [2] (24 hours), the “preferential tumor localization compared to lung” value was “up to 12 fold”. The molecule further had a mean tumor-associated concentration in data set [2] (LNCaP tumor, single i.p. injection 20 nmol per animal, harvest 24 hours) of 1.48 mg/kg. For the same molecule, in data set [2] (setting [4]), the lung concentration was found to be 0.12 mg/kg. Also, in data set [2] (setting [5]), the kidney tissue level was 0.05 mg/kg, the lung tissue level was 0.06 mg/kg and the tumor tissue level amounted to 0.45 mg/kg.

Take `C[14C](=O)N[C@H](CCNC(=O)c1cc(NC(=O)c2cc(NC(=O)c3cc(NC(=O)c4nccn4C)cn3C)cn2C)cn1C)C(=O)Nc1cn(C)c(C(=O)Nc2cc(C(=O)Nc3cc(C(=O)Nc4cc(C(=O)NCCCN(C)CCCNC(=O)c5cccc(C(=O)O)c5)n(C)c4)n(C)c3)n(C)c2)n1` [compound 2]: the “mean tumor and host tissue values compared with compound 1” value in data set [2] (24 hours, differently placed C-14 label) is reported as “within experimental error”. Besides, in data set [2] (24 hours), the “preferential tumor localization compared to lung” value is on record as “up to 12 fold”.

For `CN(CCCNC(=O)c1cc(NC(=O)c2cc(NC(=O)c3cc(NC(=O)c4nc(NC(=O)[C@H](N)CCNC(=O)c5cc(NC(=O)c6cc(NC(=O)c7cc(NC(=O)c8nccn8C)cn7C)cn6C)cn5C)cn4C)cn3C)cn2C)cn1C)CCCN[14C](=O)c1cccc([14C](=O)O)c1` [compound 3], the liver toxicity result in data set [1] is given as “resulted in liver toxicity”. In data set [2] (24 hours), the “lung levels relative to compound 1” value was “almost eightfold higher” and the “tumor-associated levels compared with compound 1” value was “within error”. The “host tissue levels compared with compound 1” value in data set [2] (24 hours, kidney, liver, lung) was “substantially higher levels”. The molecule also registered a lung concentration in data set [2] (setting [4]) of 0.93 mg/kg.

As to `COc1cccc2c1C(=O)c1c(O)c3c(c(O)c1C2=O)C[C@@](O)(C(=O)CO)C[C@@H]3O[C@H]1C[C@H](N)[C@H](O)[C@H](C)O1` [doxorubicin], in data set [3] (2 hour timepoint), the “liver levels higher than MCF7 xenograft levels” value is recorded as approximately 2 fold. Besides, the tumor localization value result in data set [3] (MCF7 xenograft, i.p. 1.6 mg/kg, up to 24 hours after single injection) is listed as “about 1 mg/kg”.
